# Source: US8455475B2 (Gruenenthal GmbH, priority 2009, dated 2013)
# Assays:
# [1] = molecular target: T1, rat B1R (bradykinin receptor 1) (Rattus norvegicus, UniProt P97583); experiment: FLIPR Ca2+ assay (Fluo-4) on CHO K1 cells stably transfected with the B1R gene of the rat (rB1R cells): % inhibition at 10 μM / IC50, agonist Des-Arg9-bradykinin; assay type: cell-based; settings: for inhibition at 10 µM: CHO-K1, rat B1R
# T1 construct: expressed in transfected cells; host or cells: CHO K1 cells
# T1 sequence (P97583 1-337): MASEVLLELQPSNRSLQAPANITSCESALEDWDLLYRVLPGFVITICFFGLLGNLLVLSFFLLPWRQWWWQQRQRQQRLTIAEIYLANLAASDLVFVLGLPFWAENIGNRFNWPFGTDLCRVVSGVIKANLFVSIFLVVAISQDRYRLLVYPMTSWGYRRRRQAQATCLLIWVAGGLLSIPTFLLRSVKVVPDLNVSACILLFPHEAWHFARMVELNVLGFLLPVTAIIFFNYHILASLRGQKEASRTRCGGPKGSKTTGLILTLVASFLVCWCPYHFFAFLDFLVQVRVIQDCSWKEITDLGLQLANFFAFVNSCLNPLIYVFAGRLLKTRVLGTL
# How it was run: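 Cells were Fluo-4-loaded, then test compound (10 μM, or a concentration series for IC50) was preincubated 10–20 min before agonist challenge at EC80: Lys-Des-Arg9-bradykinin for hB1R, Des-Arg9-bradykinin for rB1R. Peak Ca2+ fluorescence (ex 488/em 540 nm) gave % inhibition versus maximal achievable inhibition.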
# [2] = molecular target: T2, human B1R (bradykinin receptor 1) (Homo sapiens, UniProt P46663); experiment: FLIPR Ca2+ assay (Fluo-4) on CHO K1 cells stably transfected with the human B1R gene (hB1R cells): % inhibition at 10 μM / IC50, agonist Lys-Des-Arg9-bradykinin; assay type: cell-based
# T2 construct: expressed in transfected cells; host or cells: CHO K1 cells
# T2 sequence (P46663 1-353): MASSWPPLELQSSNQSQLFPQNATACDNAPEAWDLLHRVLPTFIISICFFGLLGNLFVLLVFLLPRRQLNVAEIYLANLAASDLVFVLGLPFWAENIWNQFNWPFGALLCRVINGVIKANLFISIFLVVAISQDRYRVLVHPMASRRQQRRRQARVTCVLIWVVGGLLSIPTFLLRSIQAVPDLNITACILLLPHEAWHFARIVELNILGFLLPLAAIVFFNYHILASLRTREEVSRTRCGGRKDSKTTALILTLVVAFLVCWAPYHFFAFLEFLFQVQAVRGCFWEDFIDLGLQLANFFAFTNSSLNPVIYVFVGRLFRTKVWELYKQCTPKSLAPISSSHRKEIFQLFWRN
# Experimental: The agonistic or antagonistic action of substances can be quantified on the bradykinin receptor 1 (B1R) of the human and rat species with ectopically expressing cell lines (CHO K1 cells) and with the aid of a Ca^2+-sensitive dyestuff (Fluo-4) in a fluorescent imaging plate reader (FLIPR). The figure in % activation is based on the Ca^2+ signal after addition of Lys-Des-Arg^9-bradykinin (0.5 nM) or Des-Arg^9-bradykinin (100 nM). Antagonists lead to a suppression of the Ca^2+ inflow after addition of the agonist. % inhibition compared with the maximum achievable inhibition is stated.
# The agonistic or antagonistic action of substances can be determined on the bradykinin receptor 1 (B1R) of the human and rat species with the following assay. In accordance with this assay, the Ca^2+ inflow through the channel is quantified with the aid of a Ca^2+-sensitive dyestuff (type Fluo-4, Molecular Probes Europe BV, Leiden, Holland) in a fluorescent imaging plate reader (FLIPR, Molecular Devices, Sunnyvale, USA).
# Chinese hamster ovary cells (CHO K1 cells) transfected stably with the human B1R gene (hB1R cells) or the B1R gene of the rat (rB1R cells) are used. For functional studies, these cells are plated out on black 96-well plates with a clear base (BD Biosciences, Heidelberg, Germany or Greiner, Frickenhausen, Germany) in a density of 20,000-35,000 cells/well. The cells are left overnight at 37° C. and 5% CO2 in culture medium (hB1R cells: Nutrient Mixture Ham's F12, Gibco Invitrogen GmbH, Karlsruhe, Germany or DMEM, Sigma-Aldrich, Taufkirchen, Germany; rB1R cells: D-MEM/F12, Gibco Invitrogen GmbH, Karlsruhe, Germany) with 10 vol. % FBS (foetal bovine serum, Gibco Invitrogen GmbH, Karlsruhe, Germany or PAN Biotech GmbH, Aidenbach, Germany). On the following day, the cells are loaded for 60 min at 37° C. with 2.13 μM Fluo-4 (Molecular Probes Europe BV, Leiden Holland) in HBSS buffer (Hank's buffered saline solution, Gibco Invitrogen GmbH, Karlsruhe, Germany) with 2.5 mM probenecid (Sigma-Aldrich, Taufkirchen, Germany) and 10 mM HEPES (Sigma-Aldrich, Taufkirchen, Germany). The plates are then washed 2× with HBSS buffer, and HBSS buffer which additionally contains 0.1% BSA (bovine serum albumin; Sigma-Aldrich, Taufkirchen, Germany), 5.6 mM glucose and 0.05% gelatine (Merck KGaA, Darmstadt, Germany) is added. After a further incubation of 20 minutes at room temperature, the plates are inserted into the FLIPR for the Ca^2+ measurement. Alternatively, the plates are washed with buffer A (15 mM HEPES, 80 mM NaCl, 5 mM KCl, 1.2 mM CaCl2, 0.7 mM MgSO4, 2 g/l glucose, 2.5 mM probenecid), buffer A is added and the plates are loaded with 2.5 μM Fluo-4 and 0.025% Pluronic F127 (Sigma-Aldrich, Taufkirchen, Germany). Thereafter, the cells are washed 2× with buffer A and incubated for 30 minutes at room temperature with buffer A, which additionally contains 0.05% BSA and 0.05% gelatine, and thereafter inserted into the FLIPR for the Ca^2+ measurement. The Ca^2+-dependent fluorescence is measured here before and after addition of substances (λex=488 nm, λem=540 nm). Quantification is by measurement of the highest fluorescence intensity (FC, fluorescence counts) over time.
# The FLIPR protocol consists of 2 additions of substance. Test substances (10 μM) are first pipetted on to the cells and the Ca^2+ inflow is compared with the control (hB1R: Lys-Des-Arg^9-bradykinin>=50 nM; rB1R: Des-Arg^9-bradykinin 10 μM). This gives the result in % activation based on the Ca^2+ signal after addition of Lys-Des-Arg^9-bradykinin (>=50 nM) or Des-Arg^9-bradykinin (10 μM). After incubation for 10-20 minutes, Lys-Des-Arg^9-bradykinin (hB1R) or Des-Arg^9-bradykinin (rB1R) in the concentration of the EC80 is applied and the inflow of Ca^2+ is likewise determined. Antagonists lead to a suppression of the Ca^2+ inflow. % inhibition compared with the maximum achievable inhibition is calculated.
# For determination of the IC50 value, the substances are added in various concentrations. […]
Compound,inhibition at 10 µM [1],other results
"2-Chloro-N-[2,2-dimethyl-6-(9-pyridin-4-yl-3,9-diazaspiro[5.5]undecane-3-carbonyl)-1,3-dihydro-inden-1-yl]-3-(trifluoromethyl)-benzamide [IND_CC-234]",,% Inhibition (rat B1R) at 10 μM [1]: 99%; % Inhibition (human B1R) at 10 μM [2]: 85%
"2-Chloro-N-[6-(2-pyridin-4-yl-2,8-diazaspiro[4.5]decane-8-carbonyl)-2,3-dihydro-1H-inden-1-yl]-6-(trifluoromethyl)-benzamide [IND_CC-205]",,% Inhibition (rat B1R) at 10 μM [1]: 103%; % Inhibition (human B1R) at 10 μM [2]: 100%
"O=C(c1ccc2c(c1)C(N1Cc3cccc(Cl)c3C1=O)CC2)N1CCC2(CC1)CCN(c1ccncc1)CC2 (stereo not shown) [Example H-01, 7-chloro-2-[6-(9-pyridin-4-yl-3,9-diazaspiro[5.5]undecane-3-carbonyl)-2,3-dihydro-1H-indan-1-yl]-2,3-dihydro-isoindol-1-one]",97%,"inhibition at 10 µM ([2]; CHO-K1, human B1R): 100%"
"O=C(NC1CCc2ccc(C(=O)N3CCC4(CC3)CCN(c3ccncc3)CC4)cc21)c1ccccc1Cl (stereo not shown) [Example H-02, 2-chloro-N-[6-(3-pyridin-4-yl-3,9-diazaspiro[5.5]undecane-9-carbonyl)-2,3-dihydro-1H-inden-1-yl]-benzamide]",,% Inhibition (rat B1R) at 10 μM ([1]; 10 µM): 100%; % Inhibition (human B1R) at 10 μM ([2]; 10 µM): 100%
"COc1cc(C)c(S(=O)(=O)NC2CCc3ccc(C(=O)N4CCC5(CC4)CCN(c4ccncc4)CC5)cc32)c(C)c1 (stereo not shown) [Example H-03, 4-methoxy-2,6-dimethyl-N-[6-(9-pyridin-4-yl-3,9-diazaspiro[5.5]undecane-3-carbonyl)-2,3-dihydro-1H-inden-1-yl)-benzenssulfonic acid amide]",,% Inhibition (rat B1R) at 10 μM ([1]; 10 µM): 104%; % Inhibition (human B1R) at 10 μM ([2]; 10 µM): 98%
"N#Cc1cccc(CN2CCC3(CC2)CCN(C(=O)c2ccc4c(c2)C(NC(=O)c2c(F)cccc2Cl)CC4)CC3)c1 (stereo not shown) [IND_CC-800, 2-Chloro-N-[6-[9-[(3-cyano-phenyl)-methyl]-3,9-diazaspiro[5.5]undecane-3-carbonyl]-2,3-dihydro-1H-inden-1-yl]-6-fluoro-benzamide]",97%,
"N#Cc1ccccc1CN1CCC2(CC1)CCN(C(=O)c1ccc3c(c1)C(NC(=O)c1c(F)cccc1Cl)CC3)CC2 (stereo not shown) [IND_CC-801, 2-Chloro-N-[6-[9-[(2-cyano-phenyl)-methyl]-3,9-diazaspiro[5.5]undecane-3-carbonyl]-2,3-dihydro-1H-inden-1-yl]-6-fluoro-benzamide]",92%,
"O=C(NC1CCc2ccc(C(=O)N3CCC4(CCN(Cc5ccc(F)cc5Cl)CC4)CC3)cc21)c1c(F)cccc1Cl (stereo not shown) [IND_CC-802, 2-Chloro-N-[6-[9-[(2-chloro-4-fluoro-phenyl)-methyl]-3,9-diazaspiro-[5.5]undecane-3-carbonyl]-2,3-dihydro-1H-inden-1-yl]-6-fluoro-benzamide]",89%,
"O=C(NC1CCc2ccc(C(=O)N3CCC4(CCN(Cc5c(F)cccc5Cl)CC4)CC3)cc21)c1c(F)cccc1Cl (stereo not shown) [IND_CC-803, 2-Chloro-N-[6-[9-[(2-chloro-6-fluoro-phenyl)-methyl]-3,9-diazaspiro-[5.5]undecane-3-carbonyl]-2,3-dihydro-1H-inden-1-yl]-6-fluoro-benzamide]",76%,
"O=C(NC1CCc2ccc(CC(=O)N3CCC4(CCN(Cc5ccc6ncccc6c5)CC4)C3)cc21)c1ccccc1Cl (stereo not shown) [IND_CC-804, 2-Chloro-N-[6-[2-oxo-2-[8-(quinolin-6-yl-methyl)-3,8-diazaspiro[4.5]decan-3-yl]-ethyl]-2,3-dihydro-1H-inden-1-yl]-benzamide]",61%,
"O=C(NC1CCc2ccc(CC(=O)N3CCC4(CCN(Cc5ccc6nccnc6c5)CC4)C3)cc21)c1ccccc1Cl (stereo not shown) [IND_CC-805, 2-Chloro-N-[6-[2-oxo-2-[8-(quinoxalin-6-yl-methyl)-3,8-diazaspiro[4.5]decan-3-yl]-ethyl]-2,3-dihydro-1H-inden-1-yl]-benzamide]",51%,
"CCC(CC)CN1CCC2(CC1)CCN(C(=O)Cc1ccc3c(c1)C(NC(=O)c1ccccc1Cl)CC3)C2 (stereo not shown) [IND_CC-806, 2-Chloro-N-[6-[2-[8-(2-ethyl-butyl)-3,8-diazaspiro[4.5]decan-3-yl]-2-oxo-ethyl]-2,3-dihydro-1H-inden-1-yl]-benzamide]",75%,
"O=C(NC1CCc2ccc(CC(=O)N3CCC4(CCN(CC5CCCCC5)CC4)C3)cc21)c1ccccc1Cl (stereo not shown) [IND_CC-807, 2-Chloro-N-[6-[2-[8-(cyclohexyl-methyl)-3,8-diazaspiro[4.5]decan-3-yl]-2-oxo-ethyl]-2,3-dihydro-1H-inden-1-yl]-benzamide]",53%,
"COc1cc(C)c(S(=O)(=O)NC2CCc3ccc(C(=O)N4CCC5(CCN(c6ccncc6)CC5)C4)cc32)c(C)c1 (stereo not shown) [Ind_CC-087, 4-methoxy-2,6-dimethyl-N-[6-(8-pyridin-4-yl-2,8-diazaspiro[4.5]decane-2-carbonyl)-2,3-dihydro-1H-inden-1-yl]-benzenesulfonic acid amide]",100%,
"COc1cc(C)c(C(=O)NC2CCc3ccc(C(=O)N4CCC5(CCN(c6ccncc6)CC5)C4)cc32)c(C)c1 (stereo not shown) [Ind_CC-088, 4-methoxy-2,6-dimethyl-N-[6-(8-pyridin-4-yl-2,8-diazaspiro[4.5]decane-2-carbonyl)-2,3-dihydro-1H-inden-1-yl]-benzamide]",93%,
"O=C(c1ccc2c(c1)C(NS(=O)(=O)c1ccccc1Cl)CC2)N1CCC2(CCN(c3ccncc3)CC2)C1 (stereo not shown) [Ind_CC-089, 2-chloro-N-[6-(8-pyridin-4-yl-3,8-diazaspiro[4.5]decane-3-carbonyl)-2,3-dihydro-1H-inden-1-yl]-benzenesulfonic acid amide]",100%,
"N,3-Dimethyl-N-[6-(9-pyridin-4-yl-3,9-diazaspiro[5.5]undecane-3-carbonyl)-2,3-dihydro-1H-inden-1-yl]-butyramide [IND_CC-408]",,% Inhibition (rat B1R) at 10 μM [1]: 101%
